Laboratory results reported in patent publication US10414811B2, “Protease-resistant lipidated GLP-1 analogs” (MEDIMMUNE LIMITED, priority 2015, dated 2019).
Like-named read-outs stand apart in the source and are kept apart here. Numbered stars: 1 amine (or outer) side, 2 acyl side, 3 side chain; on linkers, the order of the positions; unused ones are H or OH. Square brackets hold non-standard residues; d marks the D form. Side chains are listed from the residue outwards. Peptide text beside a SMILES is read from it. * marks the point of attachment. γGlu = O=C(O)[C@H](CCC(=O)[*:2])N[*:1]; αMeF = C[C@](N)(Cc1ccccc1)C(=O)O; αMeK = C[C@](N)(CCCCN)C(=O)O; Lauroyl = CCCCCCCCCCCC(=O)*; αMeS = C[C@](N)(CO)C(=O)O; AEEA = NCCOCCOCC(=O)O; Aib = CC(C)(N)C(=O)O

Columns and labels:
Assay type in all cases: cell-based
[1] = target: T1, human glucose-dependent insulinotropic peptide receptor (GIPR) (Homo sapiens, UniProt P48546); test: cAMP assay, human GIPR cells
T1 construct: expressed in transfected cells
T1 sequence (P48546 22-466): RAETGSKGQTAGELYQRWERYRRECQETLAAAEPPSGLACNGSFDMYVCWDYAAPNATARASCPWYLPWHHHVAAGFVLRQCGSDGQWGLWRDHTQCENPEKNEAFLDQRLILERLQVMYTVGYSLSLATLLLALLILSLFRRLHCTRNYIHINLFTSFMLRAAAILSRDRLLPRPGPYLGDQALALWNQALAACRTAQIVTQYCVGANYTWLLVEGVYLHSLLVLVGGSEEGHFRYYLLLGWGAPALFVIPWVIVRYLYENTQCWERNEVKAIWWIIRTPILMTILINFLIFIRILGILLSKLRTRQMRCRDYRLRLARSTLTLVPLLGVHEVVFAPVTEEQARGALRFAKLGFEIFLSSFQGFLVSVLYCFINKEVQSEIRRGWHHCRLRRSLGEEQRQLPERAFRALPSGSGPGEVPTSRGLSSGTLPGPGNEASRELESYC
Summary of the method: (§1)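 Peptide-stimulated cAMP measured by two-step HTRF after a 30 min room-temperature incubation with receptor-expressing cells (hGLP-1R, hGIPR at 1×10^5 cells/ml; hGCGR at 2×10^5 cells/ml). Duplicate dilutions; EC50 from 4-parameter logistic fit of % Delta F.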

[2] = target: T2, human glucagon receptor (GCGR) (Homo sapiens, UniProt P47871); test: cAMP assay, human GCGR cells
T2 construct: expressed in transfected cells
Summary of the method: as §1

[3] = target: T3, human GLP-1 receptor (GLP-1R) (Homo sapiens, UniProt P43220); test: cAMP assay, human GLP-1R cells
T3 construct: expressed in transfected cells
Procedure: Sample dilutions are made in duplicate.
A frozen cryo-vial of cells expressing the receptor of interest is thawed rapidly in a water-bath, transferred to pre-warmed assay buffer and spun at 240×g for 5 minutes. Cells are re-suspended in assay buffer at a batch-dependent optimized concentration (e.g. hGCGR cells at 2×10^5 cells/ml, hGLP-1R and hGIPR cells at 1×10^5 cells/ml).
To this, 5 μL cell suspension is added and the plates incubated at room temperature for 30 minutes.
cAMP levels are measured using a commercially available cAMP dynamic 2 HTRF kit (Cisbio, Cat #62AM4PEJ), following the two step protocol as per manufacturer's recommendations. In brief; anti-cAMP cryptate (donor fluorophore) and cAMP-d2 (acceptor fluorophore) are made up separately by diluting each 1/20 in conjugate & lysis buffer provided in the kit. 5 μL anti-cAMP cryptate is added to wells of the assay plate, and 5 μL cAMP-d2 is added to wells except non-specific binding (NSB) wells, to which conjugate and lysis buffer are added. […] EC50 values of the synthetic peptides determined in cAMP assays are then determined.
Data is transformed to % Delta F as described in the manufacturer's guidelines and analyzed by 4-parameter logistic fit to determine EC50 values. […] To compare the balance of activities at the GLP-1R and GCGR between different peptides and across different conditions, these can be correlated, where the EC50's are related to those of comparator peptides.

[4] = cAMP assay, first determination (n1), read-out: Primary assay EC50 GIP-R (n1)
[5] = cAMP assay, second determination (n2), read-out: Primary assay EC50 GIP-R (n2)
[6] = cAMP assay, first determination (n1), read-out: Primary assay EC50 Gluc-R (n1)
[7] = cAMP assay, second determination (n2), read-out: Primary assay EC50 Gluc-R (n2)
[8] = cAMP assay, first determination (n1), read-out: Primary assay EC50 GLP-1R n1
[9] = cAMP assay, second determination (n2), read-out: Primary assay EC50 GLP-1R n2
[10] = mean of n1 and n2, read-out: Mean pM GLP-1R
[11] = tris-lipidated peptides, first replicate, read-out: Primary assay EC50 GIP-R (n1)
[12] = tris-lipidated peptides, second replicate, read-out: Primary assay EC50 Gluc-R (n2)

T3 sequence (P43220 24-463): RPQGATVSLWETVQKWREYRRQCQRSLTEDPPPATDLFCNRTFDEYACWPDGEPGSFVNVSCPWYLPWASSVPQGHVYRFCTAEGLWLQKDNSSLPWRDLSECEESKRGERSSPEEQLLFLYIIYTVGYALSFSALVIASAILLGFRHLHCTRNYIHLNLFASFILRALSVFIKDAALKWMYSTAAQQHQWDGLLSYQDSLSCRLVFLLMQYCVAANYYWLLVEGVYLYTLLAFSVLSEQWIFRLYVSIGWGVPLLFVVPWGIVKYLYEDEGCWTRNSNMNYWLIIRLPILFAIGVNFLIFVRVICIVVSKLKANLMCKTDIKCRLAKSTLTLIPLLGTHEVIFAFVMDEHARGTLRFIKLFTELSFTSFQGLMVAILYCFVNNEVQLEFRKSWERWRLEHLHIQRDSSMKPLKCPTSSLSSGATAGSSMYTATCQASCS
T2 sequence (P47871 26-477): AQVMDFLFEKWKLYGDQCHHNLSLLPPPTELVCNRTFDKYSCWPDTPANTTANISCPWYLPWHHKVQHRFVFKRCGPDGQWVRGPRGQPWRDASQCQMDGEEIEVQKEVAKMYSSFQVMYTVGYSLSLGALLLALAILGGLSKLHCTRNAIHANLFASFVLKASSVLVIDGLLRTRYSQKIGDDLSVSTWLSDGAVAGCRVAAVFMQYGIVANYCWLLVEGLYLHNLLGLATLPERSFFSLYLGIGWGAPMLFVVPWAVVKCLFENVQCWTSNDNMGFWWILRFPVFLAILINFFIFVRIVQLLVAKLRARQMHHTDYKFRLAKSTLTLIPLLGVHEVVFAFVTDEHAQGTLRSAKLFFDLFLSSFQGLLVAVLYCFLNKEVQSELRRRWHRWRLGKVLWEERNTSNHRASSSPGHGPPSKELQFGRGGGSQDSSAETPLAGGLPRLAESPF

Structure (SMILES)	EC50 [1, 4]	EC50 [1, 5]	EC50 [2, 6]	EC50 [2, 7]	EC50 [3, 8]	EC50 [3, 9]	EC50 [3, 10]	EC50 [1, 11]	EC50 [2, 12]
CCCCCCCCCCCCCCCC(=O)N[C@@H](CCC(=O)NCCCC[C@H](NC(=O)[C@H](CCCNC(=N)N)NC(=O)CNC(=O)[C@H](CCCCN)NC(=O)[C@@H](NC(=O)[C@H](CC(C)C)NC(=O)[C@H](Cc1c[nH]c2ccccc12)NC(=O)[C@H](C)NC(=O)[C@@H](NC(=O)[C@H](Cc1ccccc1)NC(=O)[C@H](CCC(=O)O)NC(=O)[C@H](CCCCN)NC(=O)[C@H](C)NC(=O)[C@H](C)NC(=O)[C@H](CCC(N)=O)NC(=O)CNC(=O)[C@H](CCC(=O)O)NC(=O)[C@H](CC(C)C)NC(=O)[C@H](Cc1ccc(O)cc1)NC(=O)[C@H](CO)NC(=O)[C@H](CO)NC(=O)[C@@H](NC(=O)[C@H](CC(=O)O)NC(=O)[C@H](CO)NC(=O)[C@@H](NC(=O)[C@H](Cc1ccccc1)NC(=O)[C@@H](NC(=O)CNC(=O)[C@H](CCC(=O)O)NC(=O)C(C)(C)NC(=O)[C@@H](N)Cc1c[nH]cn1)[C@@H](C)O)[C@@H](C)O)C(C)C)[C@@H](C)CC)C(C)C)C(N)=O)C(=O)O [compound 5]	≥ 81 nM	≥ 81 nM	≥ 81 nM	≥ 81 nM	7.5 pM	5.5 pM	6.5 pM		
CC[C@H](C)[C@H](NC(=O)[C@](C)(Cc1ccccc1)NC(=O)[C@H](CCC(=O)O)NC(=O)[C@](C)(CCCCN)NC(=O)[C@H](C)NC(=O)[C@H](C)NC(=O)[C@H](CCC(=O)O)NC(=O)CNC(=O)[C@H](CCC(=O)O)NC(=O)[C@H](CC(C)C)NC(=O)[C@](C)(Cc1ccccc1)NC(=O)[C@H](CO)NC(=O)[C@H](CO)NC(=O)[C@@H](NC(=O)[C@H](CCC(=O)O)NC(=O)[C@H](CO)NC(=O)[C@@H](NC(=O)[C@](C)(Cc1ccccc1)NC(=O)[C@H](CO)NC(=O)CNC(=O)[C@H](CCC(=O)O)NC(=O)C(C)(C)NC(=O)[C@@H](N)Cc1c[nH]cn1)[C@@H](C)O)C(C)C)C(=O)N[C@@H](C)C(=O)N[C@@](C)(Cc1ccccc1)C(=O)N[C@H](C(=O)N[C@H](C(=O)N[C@@](C)(CCCCN)C(=O)NCC(=O)NCC(N)=O)C(C)C)C(C)C [compound 7] (H-H[Aib]EGS[αMeF]TSEVSS[αMeF]LEGEAA[αMeK]E[αMeF]IA[αMeF]VV[αMeK]GG-NH2)	≥ 100 nM	≥ 100 nM	≥ 100 nM	≥ 100 nM	350 pM	430 pM	389 pM		
CC[C@H](C)[C@H](NC(=O)[C@](C)(Cc1ccccc1)NC(=O)[C@H](CCC(=O)O)NC(=O)[C@](C)(CCCCN)NC(=O)[C@H](C)NC(=O)[C@H](C)NC(=O)[C@H](CCC(=O)O)NC(=O)CNC(=O)[C@H](CCC(=O)O)NC(=O)[C@H](CC(C)C)NC(=O)[C@](C)(Cc1ccccc1)NC(=O)[C@H](CO)NC(=O)[C@H](CO)NC(=O)[C@@H](NC(=O)[C@H](CC(=O)O)NC(=O)[C@H](CO)NC(=O)[C@H](CO)NC(=O)[C@](C)(Cc1ccccc1)NC(=O)[C@H](CO)NC(=O)CNC(=O)[C@H](CCC(=O)O)NC(=O)C(C)(C)NC(=O)[C@@H](N)Cc1c[nH]cn1)C(C)C)C(=O)N[C@@H](C)C(=O)N[C@@](C)(Cc1ccccc1)C(=O)N[C@H](C(=O)N[C@H](C(=O)N[C@@](C)(CCCCN)C(=O)NCC(=O)NCC(N)=O)C(C)C)C(C)C [compound 8] (H-H[Aib]EGS[αMeF]SSDVSS[αMeF]LEGEAA[αMeK]E[αMeF]IA[αMeF]VV[αMeK]GG-NH2; N-terminus assumed)	23 nM	23 nM	7.8 nM	12 nM	71 pM	110 pM	88 pM		
CC(C)C[C@H](NC(=O)[C@](C)(Cc1ccccc1)NC(=O)[C@H](CO)NC(=O)[C@H](CO)NC(=O)[C@@H](NC(=O)[C@H](CC(=O)O)NC(=O)[C@H](CO)NC(=O)[C@@H](NC(=O)[C@](C)(Cc1ccccc1)NC(=O)[C@H](CO)NC(=O)CNC(=O)[C@H](CCC(=O)O)NC(=O)C(C)(C)NC(=O)[C@@H](N)Cc1c[nH]cn1)[C@@H](C)O)C(C)C)C(=O)N[C@@H](CCC(=O)O)C(=O)NCC(=O)N[C@@H](CCC(=O)O)C(=O)N[C@@H](C)C(=O)N[C@@H](C)C(=O)N[C@@](C)(CCCCN)C(=O)N[C@@H](CCC(=O)O)C(=O)N[C@@](C)(Cc1ccccc1)C(=O)N[C@H](C(=O)N[C@@H](C)C(=O)N[C@@](C)(Cc1ccccc1)C(=O)N[C@H](C(=O)N[C@H](C(=O)N[C@@](C)(CCCCN)C(=O)NCC(=O)NCC(N)=O)C(C)C)C(C)C)C(C)C [compound 11] (H-H[Aib]EGS[αMeF]TSDVSS[αMeF]LEGEAA[αMeK]E[αMeF]VA[αMeF]VV[αMeK]GG-NH2)	≥ 100 nM	≥ 100 nM	≥ 100 nM	≥ 100 nM	32 pM	32 pM	32 pM		
CCCCCCCCCCCC(=O)N[C@@H](CCC(=O)NCCOCCOCC(=O)NCCOCCOCC(=O)NCCCC[C@H](NC(=O)[C@H](CC(=O)O)NC(=O)[C@H](CO)NC(=O)[C@@H](NC(=O)[C@](C)(Cc1ccccc1)NC(=O)[C@H](CO)NC(=O)CNC(=O)[C@H](CCC(=O)O)NC(=O)C(C)(C)NC(=O)[C@@H](N)Cc1c[nH]cn1)[C@@H](C)O)C(=O)N[C@@H](CO)C(=O)N[C@@H](CO)C(=O)N[C@@H](Cc1ccc(O)cc1)C(=O)N[C@@H](CC(C)C)C(=O)N[C@@H](CCC(=O)O)C(=O)NCC(=O)N[C@@H](CCC(=O)O)C(=O)N[C@@H](C)C(=O)N[C@@H](C)C(=O)N[C@@](C)(CCCCN)C(=O)N[C@@H](CCCCNC(=O)COCCOCCNC(=O)COCCOCCNC(=O)CC[C@H](NC(=O)CCCCCCCCCCC)C(=O)O)C(=O)N[C@@H](Cc1ccccc1)C(=O)N[C@H](C(=O)N[C@@H](C)C(=O)N[C@@H](Cc1ccccc1)C(=O)N[C@@H](CCCCNC(=O)COCCOCCNC(=O)COCCOCCNC(=O)CC[C@H](NC(=O)CCCCCCCCCCC)C(=O)O)C(=O)N[C@H](C(=O)N[C@@H](CCC(=O)O)C(=O)NCC(=O)NCC(N)=O)C(C)C)[C@@H](C)CC)C(=O)O [compound 474] (H-H[Aib]EGS[αMeF]TSDK([AEEA-AEEA-γGlu-Lauroyl])SSYLEGEAA[αMeK]K([AEEA-AEEA-γGlu-Lauroyl])FIAFK([AEEA-AEEA-γGlu-Lauroyl])VEGG-NH2; N-terminus assumed)								19.9 nM	19.9 nM
CCCCCCCCCCCC(=O)N[C@@H](CCC(=O)NCCOCCOCC(=O)NCCOCCOCC(=O)NCCCC[C@H](NC(=O)[C@H](CCC(=O)O)NC(=O)CNC(=O)[C@H](CCC(=O)O)NC(=O)[C@H](CC(C)C)NC(=O)[C@H](CCCCNC(=O)COCCOCCNC(=O)COCCOCCNC(=O)CC[C@H](NC(=O)CCCCCCCCCCC)C(=O)O)NC(=O)[C@H](CO)NC(=O)[C@](C)(CO)NC(=O)[C@@H](NC(=O)[C@H](CC(=O)O)NC(=O)[C@H](CO)NC(=O)[C@@H](NC(=O)[C@](C)(Cc1ccccc1)NC(=O)[C@H](CO)NC(=O)CNC(=O)[C@H](CCC(=O)O)NC(=O)C(C)(C)NC(=O)[C@@H](N)Cc1c[nH]cn1)[C@@H](C)O)C(C)C)C(=O)N[C@@H](C)C(=O)N[C@@](C)(CCCCN)C(=O)N[C@@H](CCC(=O)O)C(=O)N[C@@H](Cc1ccccc1)C(=O)N[C@H](C(=O)N[C@@H](C)C(=O)N[C@@H](Cc1ccccc1)C(=O)N[C@@H](CCCCNC(=O)COCCOCCNC(=O)COCCOCCNC(=O)CC[C@H](NC(=O)CCCCCCCCCCC)C(=O)O)C(=O)N[C@H](C(=O)N[C@@H](CCC(=O)O)C(=O)NCC(=O)NCC(N)=O)C(C)C)[C@@H](C)CC)C(=O)O [compound 481] (H-H[Aib]EGS[αMeF]TSDV[αMeS]SK([AEEA-AEEA-γGlu-Lauroyl])LEGEK([AEEA-AEEA-γGlu-Lauroyl])A[αMeK]EFIAFK([AEEA-AEEA-γGlu-Lauroyl])VEGG-NH2; N-terminus assumed)								19.8 nM	19.8 nM
